Assay results: patent publication US8969373B2, “HCV protease inhibitors” (Shanghai Tangrun Pharmaceuticals Co., Ltd., priority 2011, dated 2015)
Where two headings read alike, the source gives them in different places.

Tests used:
[1] = system: HCV replicon (pSGR-399LM) in Huh7 cells; assay: Inhibitory activity in the HCV replicon system (Renilla luciferase); type: cell-based; conditions: Hepatitis C virus, Huh-7, pSGR-399LM replicon Huh7 cells, 72 hr
Procedure: The Inhibitory Activity of Compounds in the HCV Replicon System
HCV replicon cell-line: The Huh7 cells were transfected with pSGR-399LM replicon DNA and cultured in the DMEM containing 10% FBS and 0.5 mg/mL G418. The cells were split at 1:3 to 1:5 every 3-4 days. The transfected cells were seeded in 96-well plates and cultured at 37° C., 5% CO2 for 24 hr.
Treatment with samples: To the HCV replicon Huh7 cells-line were added different concentration of the samples (i.e. compound Ik, wherein k=1, 2, 3 . . . 42), the each concentration for duplicate, and set no sample control wells. The concentration started at 400 nM, with quarter dilution to form five different concentrations of samples, that is 400 nM, 100 nM, 25 nM, 6.25 nM and 1.56 nM. The samples were added separately, and continued to incubated for 72 hr.
Fluorescence detection: After 72 hr treatment with sample, the cells were lysed and added with Renilla luciferase substrate to detect luminescent signal. The relative luminescent unit (RLU) in the luminometer was read out and used to calculate the inhibition rate of HCV.

[2] = system: HCV (J399EM virus) in Huh7.5.1 cells; assay: Inhibition of HCV replication in HCV infected human hepatocellular carcinoma cells (Huh7.5.1), HCV-EGFP fluorescence; type: cell-based; conditions: Hepatitis C virus, Huh-7.5.1, 72 h, read-out: HCV infected human hepatocellular carcinoma cells in vitro EC50(nM)
Procedure: In Vitro Inhibitory Activity of Compounds in HCV Replication in HCV Infected Human Hepatocellular Carcinoma Cells (Huh7.5.1)
The preparation of Huh7.5.1cells: Huh 7.5.1 cells were seeded at a 96-well plate with 37 and 5% CO2 for 24 hours incubation.
Virus infection: Using the J399EM virus supernatants (moi≈0.1) to infect Huh7.5.1cells. At the same time, the no virus infected cell will be set up as the control. After 8 hours virus infection, the virus will be washed out with PBS.
Drug treatment: The different doses of samples (i.e. the compound Ik, wherein k=1, 2, 3, . . . 42) were added in J399EM infected Huh7.5.1 cells, the each dose for duplicate. At the same time the no sample added in wells will be set up as the control. The test dose of sample is starting from 25 nM or 400 nM, with quarter dilution, 5 doses of sample will be added in the test wells, respectively, then continued for 72 hours incubation.
HCV-EGFP fluorescence detection: After samples treatment for 72 hours, the autofluorescence of HCV-EGFP were measured by the luminometer with excitation of 488 nm, and emission of 516 nm. The related fluorescence unit (RFU) of samples will be read out and used for calculating the inhibitory rates of compounds in HCV replication.

[3] = Pharmacokinetic evaluation in SD rats after oral administration; type: in vivo, Sprague-Dawley (SD) rats; conditions: oral gavage, 10 mg/kg; for bioavailability: read-out: F (absolute bioavailability)
Procedure: Pharmacokinetic Evaluation of the Compounds of this Invention
Twenty healthy male Sprague-Dawley (SD) rats with body weight of 200-220 g were divided into 5 groups randomly and each group contains 4 rats. Before the experiment, rats were fasted for 12 h with free access to water. The compound Ik (wherein k=2, 5, 18, 34 or 38) of this invention was administered by oral gavage at a dose level of 10 mg/kg. The compounds were prepared with 0.5% CMC-Na containing 1% Tween 80. The dose volume was 10 mL/kg. The rats were afforded unlimited access to food after 2 h of dosing 0.3 mL of blood samples were collected at 0.25 h, 0.5 h, 1.0 h, 2.0 h, 3.0 h, 5.0 h, 7.0 h, 9.0 h, and 24.0 h, respectively, from postocular venous plexes of the rat. The blood samples were placed in heparin-containing tubes and immediately centrifuged at 11000 rpm for 5 min. Plasma was separated and refrigerated at −20° C. until analysis. LC-MS/MS methods were used to quantify plasma concentrations of the compound Ik.

[4] = male, Sprague-Dawley, rat, plasma
[5] = male, Sprague-Dawley, rat, plasma, po, read-out: Cmax
[6] = male, Sprague-Dawley, rat, plasma, po

| SMILES | EC50 [1] | EC50 [2] | AUC(0-inf) [3, 4] | AUC(0-t) [3, 4] | Tmax [3, 4] | half-life [3, 4] | Cmax [3, 5] | bioavailability [3, 6] | Cmax ([3]; listed as I18, 10 mg/kg) |
| --- | --- | --- | --- | --- | --- | --- | --- | --- | --- |
| COc1ccc2oc3c4ccccc4c(O[C@@H]4C[C@H]5C(=O)N[C@]6(C(=O)NS(=O)(=O)C7CC7)C[C@H]6/C=C\CCCCC[C@H](NC(=O)OC(C)(C)C)C(=O)N5C4)nc3c2c1 [Compound 2, tert-butyl(2R,6S,13aS,14aR,16aS,Z)-14a-(cyclopropylsulfonylcarbamoyl)-2-(8-methoxybenzofuro[3,2-c]isoquinolin-5-yloxy)-5,16-dioxo-1,2,3,5,6,7,8,9,10,11,13a,14,14a,15,16,16a-hexadecahydrocyclopropa[e]pyrrolo[1,2-a][1,4]diazacyclopentadecin-6-yl carbamate] | < 100 nM | < 100 nM | 1780 ± 53.7 ng·h/mL | 158 ± 49.8 ng·h/mL | 24 ± 6 min | 186 ± 78 min | 49.7 ± 11 ng/mL | 1.8% |  |
| CC(C)(C)OC(=O)N[C@H]1CCCCC/C=C\[C@@H]2C[C@@]2(C(=O)NS(=O)(=O)C2CC2)NC(=O)[C@@H]2C[C@@H](Oc3nc4c5cc(Cl)ccc5oc4c4ccccc34)CN2C1=O [Compound 5] | < 100 nM | < 100 nM | 3030 ± 1700 ng·h/mL | 2880 ± 1720 ng·h/mL | 75 ± 30 min | 209 ± 65.4 min | 560 ± 139 ng/mL | 17.1% |  |
| COc1ccc2c(c1)c(O[C@@H]1C[C@H]3C(=O)N[C@]4(C(=O)NS(=O)(=O)C5CC5)C[C@H]4/C=C\CCCCC[C@H](NC(=O)OC(C)(C)C)C(=O)N3C1)nc1c3ccccc3oc21 [Compound 18] | < 100 nM | < 100 nM | 3270 ± 303 ng·h/mL | 3220 ± 336 ng·h/mL | 102 ± 36 min | 228 ± 60 min | 623 ± 60.7 ng/mL | ~36.1% | 623.3 ± 60.7 ng/mL |
| C=C[C@@H]1C[C@]1(NC(=O)[C@@H]1C[C@@H](Oc2nc3c4cc(OC)ccc4oc3c3ccc(Cl)cc23)CN1C(=O)[C@@H](NC(=O)OC(C)(C)C)C(C)(C)C)C(=O)NS(=O)(=O)C1CC1 [Compound 32] | < 100 nM | 100 to 1000 nM |  |  |  |  |  |  |  |
| C=C[C@@H]1C[C@]1(NC(=O)[C@@H]1C[C@@H](Oc2nc3c4cc(Cl)ccc4oc3c3ccc(Cl)cc23)CN1C(=O)[C@@H](NC(=O)OC(C)(C)C)C(C)(C)C)C(=O)NS(=O)(=O)C1CC1 [Compound 33] | 100 to 1000 nM | 100 to 1000 nM |  |  |  |  |  |  |  |
| C=C[C@@H]1C[C@]1(NC(=O)[C@@H]1C[C@@H](Oc2cc(-c3csc(NC(=O)C(C)C)n3)nc3c2oc2ccc(OC)c(Cl)c23)CN1C(=O)[C@@H](NC(=O)OC(C)(C)C)C(C)(C)C)C(=O)NS(=O)(=O)C1CC1 [Compound 34] | < 100 nM | < 100 nM | 11 ± 1.1 ng·h/mL | 9.6 ± 0.9 ng·h/mL | 24 ± 12 min | 30 ± 18 min | 11.4 ± 4.3 ng/mL | 1.6% |  |
| C=C[C@@H]1C[C@]1(NC(=O)[C@@H]1C[C@@H](Oc2cc(-c3csc(NC(=O)C(C)C)n3)nc3c2oc2ccc(OC)c(Br)c23)CN1C(=O)[C@@H](NC(=O)OC(C)(C)C)C(C)(C)C)C(=O)NS(=O)(=O)C1CC1 [Compound 35] | < 100 nM | < 100 nM |  |  |  |  |  |  |  |
| O=C1N[C@]2(C(=O)NS(=O)(=O)C3CC3)C[C@H]2/C=C\CCCCC[C@H](CC(=O)N2CCCCC2)C(=O)N2C[C@H](Oc3cc(-c4ccccc4)nc4c3oc3ccccc34)C[C@@H]12 [Compound 36] | < 100 nM | 100 to 1000 nM |  |  |  |  |  |  |  |
| C=C[C@@H]1C[C@]1(NC(=O)[C@@H]1C[C@@H](Oc2cc(-c3ccccc3)nc3c2oc2ccccc23)CN1C(=O)[C@@H](CC(=O)N1CCCCC1)C(C)(C)C)C(=O)NS(=O)(=O)C1CC1 [Compound 37] | 100 to 1000 nM | 100 to 1000 nM |  |  |  |  |  |  |  |
| C=C[C@@H]1C[C@]1(NC(=O)[C@@H]1C[C@@H](Oc2cc(-c3ccccc3)nc3c2oc2ccccc23)CN1C(=O)[C@@H](NC(=O)OC(C)(C)C)C(C)(C)C)C(=O)NS(=O)(=O)C1CC1 [Compound 38] | < 100 nM | < 100 nM | 243 ± 81 ng·h/mL | 239 ± 81 ng·h/mL | 37.8 ± 15 min | 43.2 ± 18 min | 150 ± 42 ng/mL | 8.7% |  |
| C=C[C@@H]1C[C@]1(NC(=O)[C@@H]1C[C@@H](Oc2cc(-c3cnc(C(C)(C)O)s3)nc3c2oc2ccc(OC)c(Cl)c23)CN1C(=O)[C@@H](NC(=O)OC(C)(C)C)C(C)(C)C)C(=O)NS(=O)(=O)C1CC1 [Compound 39] | < 100 nM | < 100 nM |  |  |  |  |  |  |  |
| C=C[C@@H]1C[C@]1(NC(=O)[C@@H]1C[C@@H](Oc2cc(-c3cnc(C(C)(C)O)s3)nc3c2oc2ccc(OC)c(Br)c23)CN1C(=O)[C@@H](NC(=O)OC(C)(C)C)C(C)(C)C)C(=O)NS(=O)(=O)C1CC1 [Compound 40] | < 100 nM | < 100 nM |  |  |  |  |  |  |  |
